Target: natural firefly luciferase (Fluc) (Photinus pyralis, UniProt P08659)
Assay: Measurement of emission spectrum with natural firefly luciferase, ATP magnesium salt and luminescent substrate
Type: biochemical
Conditions: 100 μM substrate solution, KPB pH 8.0, Fluc 1 mg/mL, 10 mM ATP magnesium salt, measured for 180 seconds
Procedure: The emission spectra were measured using the luminescent substrates represented by the structural formulas (1-1) to (1-10) synthesized as described above and the luminescent substrate represented by the structural formula (a) below. The luminescent substrate represented by the structural formula (a) was prepared according to “Synthesis of Luminescent Substrate C” in WO 2021/193069 A1 (PTL 4).
Specifically, 5 μL of 500 mM potassium phosphate buffer (KPB, pH 8.0), 5 μL of a 100 μM solution of each luminescent substrate, 5 µL of a 1 mg/mL solution of natural firefly luciferase (Fluc), and 10 μL of a 10 mM ATP magnesium salt solution were mixed, and the emission spectrum was measured for 180 seconds using a luminescence measurement device (AB-1850 manufactured by ATTO Corporation). However, the substrate concentration for the luminescent substrate represented by the structural formula (a) was set to 1 mM, and the substrate concentration for the luminescent substrate represented by the structural formula (1-6) was set to 10 mM. Note that FIGS. 1 to 3 illustrate emission spectra normalized so that the maximum emission intensity was 1.

natural firefly luciferase (Fluc), sequence (P08659 whole entry): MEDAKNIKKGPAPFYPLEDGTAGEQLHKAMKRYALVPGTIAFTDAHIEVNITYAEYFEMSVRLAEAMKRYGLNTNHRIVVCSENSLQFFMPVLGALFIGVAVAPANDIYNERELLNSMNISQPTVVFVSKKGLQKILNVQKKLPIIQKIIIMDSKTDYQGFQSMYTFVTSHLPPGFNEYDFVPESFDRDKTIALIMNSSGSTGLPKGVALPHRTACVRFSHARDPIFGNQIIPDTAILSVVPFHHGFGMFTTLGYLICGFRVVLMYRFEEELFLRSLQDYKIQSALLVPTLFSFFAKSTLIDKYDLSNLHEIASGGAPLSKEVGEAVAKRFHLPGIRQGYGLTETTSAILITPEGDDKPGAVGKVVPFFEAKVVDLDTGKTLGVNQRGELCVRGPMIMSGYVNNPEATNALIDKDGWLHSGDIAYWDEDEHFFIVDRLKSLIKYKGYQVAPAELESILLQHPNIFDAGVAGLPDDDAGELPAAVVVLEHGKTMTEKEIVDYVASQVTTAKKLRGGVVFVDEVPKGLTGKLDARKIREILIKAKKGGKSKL

SMILES	Maximum emission wavelength for each substrate (λmax) [nm]
O=C(O)[C@H]1CSC(c2ccc(/C=C/c3ccc[nH]3)cc2)=N1 [Compound of structural formula (1-1)]	640
O=C(O)[C@H]1CSC(c2ccc(/C=C/c3ccc[nH]3)cn2)=N1 [Compound of structural formula (1-2)]	660
Cn1cccc1/C=C/c1ccc(C2=N[C@@H](C(=O)O)CS2)cc1 [Compound of structural formula (1-3)]	640
Cn1cccc1/C=C/c1ccc(C2=N[C@@H](C(=O)O)CS2)nc1 [Compound of structural formula (1-4)]	660
CN(C)c1ncc(/C=C/c2ccc(C3=N[C@@H](C(=O)O)CS3)nc2)s1 [Compound of structural formula (1-7)]	710
CN(C)c1ncc(/C=C/c2ccc(C3=N[C@@H](C(=O)O)CS3)cc2)s1 [Compound of structural formula (1-8)]	680
CN(C)c1cnc(/C=C/c2ccc(C3=N[C@@H](C(=O)O)CS3)nc2)s1 [Compound of structural formula (1-9)]	760
CN(C)c1cnc(/C=C/c2ccc(C3=N[C@@H](C(=O)O)CS3)cn2)s1 [Compound of structural formula (1-10)]	730
